Measured values taken from US20170269060A1, “Assays and Compounds to Treat Kidney Diseases” (Rush University Medical Center, priority 2014, published 2017).
≈ marks a conversion by molar mass, not a printed value.

Experiments:
murine podocytes [1] = experiment: Primary HCS screen of chemical library, cell roundness Z score, PAN injury; assay type: cell-based; conditions: PAN 16 μg/ml, 48 hours; for primary hit (protects podocytes from PAN damage): Z-score cutoff ≦−1.28
Procedure: Screening of chemical libraries, which include the MicroSource Spectrum collection (MicroSource Discovery Systems, Inc., Gaylorsville, C T, 2000 compounds) and Enzo kinase inhibitor array (Enzo Life Sciences, Farmingdale, N.Y., 80 compounds), Sigma, Millipore, Tocris and Cayman (41 compounds), was performed using multiwall plates. Podocytes cultured in multiwall plates were used in these assays. 100 nL of each compound, also in multiwall plates (at a stock concentration of 1 mM to 10 mM in DMSO), was added to each well of a podocyte containing multiwall plate using the Perkin Elmer Janus automated workstation with the help of a 96-pin or 384-pin pin tool (100 nL, PerkinElmer). The compounds were added in the absence or presence of podocyte damaging agent (such as PAN). The plates containing the compounds were subsequently placed in tissue culture incubators and cells were further cultured for 1-72 h at 37° C. A compound that decreased PAN damaged was identified by quantifying the changes in at least one of the following parameters: cell morphology, cell roundedness, F-actin intensity, number of focal adhesions, intensity or size of focal adhesions, length of actin fibers, size of actin fibers, percent damaged or percent healthy cells etc. In certain cases, hits were validated by acquiring a fresh batch of the compound from commercial sources and performing dose-response curves. Images from the primary screen were quantified for cell morphology parameter and were normalized by calculating z-score (z) for each test compound, to compensate for any plate-to-plate variability. (Wiggins, Kidney International, 2007) z was calculated for each of the test compounds using the formula: […]
where x is the raw measured value with each compound, μ is the mean of all measured raw values across a plate and a is the standard deviation of the measurements. A z-score of […], corresponding to 90% population under the curve, was used as a cutoff to identify primary hits in the assay.
To identify small molecules that protect podocytes from PAN injury, a chemical library of 2121 pharmacologically active compounds was screened. Podocytes were treated with compounds from the chemical library in the presence of PAN (16 μg/ml) at 37° C. for 48 hours. The assay plates also contained eight positive (PAN and MZR treatment) and eight negative (PAN treatment) control wells. Wells were imaged and analyzed, and the mean cell roundness per cell was calculated for each well. Mean cell roundness was normalized using plate-based positive and negative controls, and a Z score for the change in cell morphology on treatment with each compound (SD away from the plate mean) was calculated. The results from the screen are presented as a graph in FIG. 7A. Wells with nuclei counts. […] Primary hits (compounds that protected podocytes from PAN damage) were identified from the assay using a Z-score cutoff of ≦−1.28 corresponding to the 10% population on one side of the bell-shaped curve. […] Given that our assay is image based, the images from all initial hits were visually inspected manually, which eliminated 10 compounds as nonhits. […] The identified list of primary hit compounds included three Rho kinase inhibitors (Y27632, GSK 429286, and Thiazovivin) and a p38 kinase inhibitor (SB 203580). […] Next, to validate the hit compounds identified from our screen, selected primary hits were reanalyzed using independently obtained powder forms of the compounds.

murine podocytes [2] = experiment: Podocyte HCS phenotypic assay, PAN-induced podocyte injury; assay type: cell-based; conditions: for prevention of PAN induced injury, dose-response of percent damaged cells (FIG. 4A-4P): 30 ug/ml PAN, co-treatment, multi-parameter algorithm
Procedure: Conditionally immortalized human and murine podocytes were used in a majority of the assays. Human and murine podocytes were cultured as have been described previously (Saleem et al., JASN 13, 630-638 (2002); Mundel, Reiser et al., Experimental Cell Research, 236, p 248 (1997)). For example, murine podocytes derived from the mouse line H-2Kb-tsA58 were cultured under permissive conditions at 33° C. on rat-tail collagen coated dishes in RPMI medium supplemented with 10% heat inactivated FBS, penicillin and streptomycin (100 U/ml), and 10 U/ml recombinant mouse γ-interferon. Cells were then trypsinized and re-plated for differentiation at 37° C. in medium without γ-interferon. The cells were differentiated for 0 to 7 days and then reseeded to rat-tail collagen coated multi-well plates at a density of 1500/well or 500/well for 96 and 384 well plates, respectively. Cells were then further differentiated for another 5-14 days in the multi-well plates for subsequent experimentation with various reagents prior to fixation and analyses.
In some embodiments, podocytes were cultured at 37° C. for the first 7 days of differentiation in large tissue culture flasks and subsequently reseeded and further cultured at 37° C. in the 96-well assay plates for the next 4-6 days to provide low well-to-well variability in cell number in the assay plates and healthy podocytes expressing specific and well characterized podocyte markers synaptopodin and podocin.
Differentiated podocytes were cultured in 96-well or 384-well multiwall optical plates (PerkinElmer, Boston, Mass.). In some embodiments, differentiated podocytes were treated with various amounts of puromycin aminonucleoside (PAN), […] LPS, Adriamycin and other agents. In some embodiments, the cells were co-treated with chemical and other agents (such as mizouribine) to prevent damage from damaging agents (such as PAN). In other embodiments, the rescue agents were added 0-48 h after the addition of injury causing agents. In some embodiments, patient samples such as blood, serum, urine or other samples were added to differentiated podocytes to identify disease causing agents. In some embodiments, primary, differentiated patient podocytes were cultured to identify defects in structure and/or function.
After culturing for the appropriate time and treatment or control, cultured podocytes in multi-well optical plates were rinsed with phosphate buffered saline (PBS) and subsequently fixed using a solution of paraformaldehyde and sucrose in PBS (at a final concentration of 4% paraformaldehyde and 2% sucrose in PBS) for 30 min at room temperature. Following fixation, the cells were permeabilization using a solution of 0.3% Triton X-100 in PBS for 15 min at room temperature. For visualization of filamentous-actin (F-Actin) in cells, cells were stained with a solution of Alexa fluor 568 phalloidin (Invitrogen), as previously described. HCS CellMask Blue (Invitrogen) was used as a fluorescent stain for visualizing nuclei, cytoplasm and the individual cell boundaries. Additional proteins that were fluorescently labeled and analyzed using appropriate primary mAbs include synaptopodin (synpo, primary mAb from Santa Cruz), Paxillin (primary mAb clone Y113 from Millipore) for quantitation of focal adhesions, beta1 integrin, podocin, WT1 nephrin, CD2-AP may also be used. Other proteins may also be used for labeling. Appropriate secondary antibodies (fluorescently labeled) were used for fluorescent visualizations. High throughput confocal microscopy was done using the Opera LX (Perkin Elmer) with filters and exposure times according to manufacturer's instructions and as described before. Images were used in subsequent image analysis for quantitation of a variety of cellular parameters. Assays were performed in replicate wells for assay robustness.
Images for each frame of each well in multiple fluorescent channels were acquired using OPERA imaging system. […]

Compound | primary hit (protects podocytes from PAN damage) (murine podocytes [1]) | prevention of PAN induced injury, dose-response of percent damaged cells (FIG. 4A-4P) (murine podocytes [2]) | other results
C#C[C@]1(OC(C)=O)CC[C@H]2[C@@H]3CCC4=CC(=NO)CC[C@@H]4[C@H]3CC[C@@]21CC (mixture of isomers) [norgestimate] | identified |  | 
Cc1cccc(-c2[nH]ncc2-c2ccc3ncccc3n2)n1 [Alk5 Inhibitor2] |  | prevented PAN induced injury | 
O=c1cc(-c2ccc(O)cc2)oc2cc(O)cc(O)c12 [Apigenin] | primary hits | prevented PAN induced injury | 
COc1ccc2cc3[n+](cc2c1OC)CCc1cc2c(cc1-3)OCO2 [Berberine] | primary hits | prevented PAN induced injury | 
C[C@@H]1C[C@H]2[C@@H]3CCC4=CC(=O)C=C[C@]4(C)[C@@]3(F)[C@@H](O)C[C@]2(C)[C@@]1(O)C(=O)CO [DEX, Dexamethasone] |  |  | lowest concentration able to protect cells from PAN damage (murine podocytes [2]; PAN 30 μg/ml, F-actin fiber count, 48 h): 0.1 µM
COc1ccc(-c2cc(=O)c3c(O)cc(O)cc3o2)cc1O [Diosmetin] |  | prevented PAN induced injury | 
COc1cc2nc(N3CCN(C(=O)C4COc5ccccc5O4)CC3)nc(N)c2cc1OC (stereo not shown) [Doxazocin] | primary hits | prevented PAN induced injury | 
CCOc1ccc(Cc2nccc3cc(OCC)c(OCC)cc23)cc1OCC [Ethaverine] |  | prevented PAN induced injury | 
Nc1[nH]nc2nnc(-c3c(-c4ccccc4)nn4ccccc34)cc12 [FR 180204] |  | prevented PAN induced injury | 
CC1=C(C(=O)Nc2cc3cn[nH]c3cc2F)C(c2ccc(C(F)(F)F)cc2)CC(=O)N1 (stereo not shown) [GSK429286] | primary hit | prevented PAN induced injury | 
O=C1Cc2c([nH]c3ccc(Br)cc23)-c2ccccc2N1 [Kenpoullon] |  | prevented PAN induced injury | 
c1coc(CNc2ncnc3[nH]cnc23)c1 [Kinetin] |  | prevented PAN induced injury | 
NC(=O)c1ncn([C@@H]2O[C@H](CO)[C@@H](O)[C@H]2O)c1O [MZR, Mizoribine] |  |  | EC50 (murine podocytes [2]; Mus musculus, PAN 30 μg/ml, 48 hours, read-out: concentration reducing PAN damage by one half (half-maximal effective concentration)): 1.4 µg/mL (≈ 5.4 µM); concentration affording complete protection of podocytes from PAN injury (murine podocytes [2]; PAN 30 μg/ml, 48 hours): 5 µg/mL; dose-dependent protection of podocytes from PAN-induced injury (murine podocytes [2]; PAN 16-30 μg/ml, 48 hours, F-actin fibers and other parameters): dose-dependent protection; Z score of cell roundness (murine podocytes [1]; 37° C., negative Z score = active): −2.31±0.2
COc1nccc(-c2c(-c3ccc(F)cc3)ncn2C2CCC(O)CC2)n1 (stereo not shown) [P38 inhibitor (SB239063)] |  | prevented PAN induced injury | 
CN(C)c1ncnc2c1ncn2[C@@H]1O[C@H](CO)[C@@H](N)[C@H]1O [PAN, puromycin aminonucleoside] |  |  | PAN concentration causing half-maximal damage (murine podocytes [2]; Mus musculus, 48 h, read-out: PAN concentration causing half-maximal damage (half-maximal inhibitory concentration)): 16 µg/mL
C[S+]([O-])c1ccc(-c2nc(-c3ccncc3)c(-c3ccc(F)cc3)[nH]2)cc1 (stereo not shown) [SB 203580] | primary hit |  | 
O=C(NCc1ccccc1)c1csc(Nc2ccncn2)n1 [Thiazovivin] | primary hit |  | 
Nc1nc2nc[nH]c2c(=S)[nH]1 [Thioguanidine] | primary hits | prevented PAN induced injury | 
C[C@@H](N)[C@H]1CC[C@H](C(=O)Nc2ccncc2)CC1 [Y27632] | primary hit | prevented PAN induced injury | 
C=CC[C@]1(O)CC[C@H]2[C@@H]3CCC4=CC(=O)CCC4=C3C=C[C@@]21C [altrenogest] | identified |  | 
Agelasine | primary hits | prevented PAN induced injury | 
Derusnin |  | prevented PAN induced injury | 
Mundeserone |  | prevented PAN induced injury | 
antimycin A | primary hits |  | 
